Experimental data published in patent US20100311726A1, “REDUCTION OF BETA-AMYLOID LEVELS BY TREATMENT WITH THE SMALL MOLECULE DIFFERENTIATION-INDUCING FACTOR” (priority 2007, published 2010).
pIC50: −log10 of the molar value. Non-standard residues stand in square brackets, D forms with d. Residues, ends and D or L forms follow the SMILES beside them. Nle = CCCC[C@H](N)C(=O)O

Experiments:
APP [1] = assay: APP processing (mature APP, αCTF, βCTF) by western blot; format: cell-based, human; settings: for effect of proteasome inhibitor alone on APP CTF levels: CHO-CAB, 10 μM; for effect of kinase inhibitor alone on APP processing / CTF levels: CHO-7W or CHO-CAB, LiCl 1-10 mM; for effect of kinase inhibitor pretreatment on the effect of DIF-1 on APP processing: with 30 μM DIF-1
cyclin D1 = assay: Cyclin D1 level by western blot; settings: for effect on cyclin D1 level (proteasome inhibitor alone): CHO-CAB, 10 μM
Procedure: Following treatment of each cell line with or without DIF-1 (1-30 μM) and/or other inhibitors, cells were lysed in cold RIPA buffer (20 mM Tris-HCl (pH 7.4) buffer containing 150 mM NaCl, 2 mM EDTA, 1% Nonidet® P-40 (NP-40), 50 mM NaF, 1 mM Na3VO4, 1 mM Na2MoO4, 10 mg/ml aprotinin, and 10 mg/ml leupeptin), supplemented with protease inhibitor tablets from Roche (Switzerland). Protein amounts were quantified in triplicate using the BCA assay from Pierce. Equal amounts of protein extracts were fractionated by sodium dodecyl sulfate polyacrylamide gel electrophoresis (SDS-PAGE) and transferred to polyvinylidene difluoride membranes. The membranes were blocked for 1 hour with 5% fat-free powdered milk or 5% BSA, incubated overnight at 4° C. with primary antibodies (1:1000 or 1:5000), washed with TTBS and then incubated at room temperature with appropriate peroxidase-conjugated secondary antibodies (1:5000). Blots were repeatedly washed with TTBS and target proteins were detected using an enhanced chemiluminescence (ECL) system (Amersham Pharmacia Biotech, New Jersey, USA) and XOMAT™ Kodak® film.
Densitometry analysis of western blot data was performed on a PC computer using QuantityOne® software obtained from Bio-Rad® Laboratories, Inc. (California, USA). Loading variations between western blot lanes were normalized according to the GAPDH signal prior to any experimental quantification. Each western blot presented in the figures is representative of at least five independent experiments to ensure reproducibility of the results unless noted otherwise.
CHO-CAB cells were treated with lithium chloride (10mM). […] To ensure that the results observed were due to proteasome inhibition, we assessed the effects of lactacystin and ALLN on cyclin D1 levels. […] The data represents that of three separate experiments.

APP ubiquitin-conjugates = APP ubiquitin-conjugates by immunoprecipitation and western blot; settings: CHO-CAB; DIF-1 30 μM, lactacystin 10 μM, ALLN 10 μM
Procedure: For immunoprecipitations, 1 mg of total protein was diluted with extraction buffer and precleared with protein G-conjugated agarose beads (Pierce). The precleared samples were incubated overnight with anti-APP antibodies or nonimmune IgG (Jackson Laboratories). Immunocomplexes were captured with Protein G agarose beads, washed five times with extraction buffer and heated for 5 min at 95° C. in SDS gel-loading buffer.
CHO-CAB cell protein extracts (1 mg) were immunoprecipitated using APP antibodies. The immunoprecipitated complexes were analyzed by western blotting using anti-ubiquitin antibodies. […] Molecular Weight markers (kDa) are shown on the left. GAPDH levels are shown below each blot. The data represents that of three separate experiments.
To determine whether the proteasome-mediated degradation of APP is accompanied by increased levels of poly-ubiquitinated APP, we investigated the ubiquitination status of APP in extracts of CHO-CAB cells treated in the absence or presence of DIF-1 (30 μM), lactacystin (10 μM), ALLN (10 μM), DIF-1+lactacystin and DIF-1+ALLN.

human APLP1 = assay: APLP1 metabolism by western blot in CHO-A1 cells; format: cell-based; settings: 30 μM DIF-1 or 250 nM DAPT, ~20 hours
Procedure: CHO cells that stably express human APLP1, which is a closely related family member of the APPs and known γ-secretase substrate (Eggert et al., 2004), were treated with 30 μM DIF-1, DAPT or DIF-1 plus DAPT (FIG. 7). Equal numbers of CHO-A1 cells stably expressing human APLP1 cells were plated in 6-well dishes and allowed to grow overnight. The next day, the media was removed and replaced with control media (2 ml) or media containing DAPT, DIF-1 or DAPT and DIF-1. […] After washing, blots were probed with HRP-conjugated secondary antibodies (1:5000) for 1 hour at room temperature.

[2] = tested on: APP phosphorylation on residue T668; assay: APP T668 phosphorylation by western blot; format: cell-based, human; settings: CHO-7W and CHO-CAB; DAPT alone, or DAPT with DIF-1 (30 μM)
Procedure: Next, whether or not DIF-1 treatment affected the degree of T668 phosphorylation was examined by western blot (FIG. 11). Briefly, effects of DIF-1 on APP T668 phosphorylation were compared between vehicle-treated control and 250 nM of DAPT identically in each cell line. Western analysis of 15 μg of total protein was probed overnight at 4° C. with anti-APP Cterminal antibody (C66-676-695) (1:5000) and then detected on film using ECL and HRP-conjugated secondary antibodies (1:5000). […] This band has also been detected in other CHO lines where APP expression is high (˜3 fold) and by different C-terminal APP antibodies (Ab8717-676-695; except 6E10 which recognizes the N-terminal residues 1-17 of the Aβ sequence. For FIG. 11A, cells were treated with DAPT, and DAPT+DIF then were probed with anti-APP antibody (C66). For FIG. 11B, CHO-7W cells were treated with DAPT, and DAPT+DIF, and then probed with polyclonal anti-P668 APP antibody (1:1000) overnight at 4° C. in 5% BSA. After washing, cells were probed with a rabbit HRP-conjugated secondary antibody (1:5000) in BSA for 1 hour at room temperature and signals were detected on film using ECL. FIG. 11C represents CHO-CAB cells and FIG. 11D represents H4 cells expressing APP^SW.

APP [3] = assay: APP processing (mature APP, αCTF, βCTF) by western blot; format: cell-based, human; settings: CHO-7W, 250 nM
Procedure: Total protein was collected in RIPA buffer plus protease inhibitors on ice and briefly sonicated. They lysate was centrifuged at 14,000 rpm for 15 minutes. […] After washing, the blots were probed with a polyclonal HRP-tagged secondary Ab (1:5000) for 1 hour at room temperature then visualized.
A second possibility is that DIF-1 potentiates the activity of y-secretase and processing of αCTFs and βCTFs. To assess this latter possibility, we examined the effect of DIF-1 in the presence of DAPT, a potent γ-secretase inhibitor. Even numbers of CHO-7W cells were plated in 6-well dishes and allowed to grow overnight. The next day, the media was removed and replaced with control media (2 ml) or media containing DAPT, DIF-1 or DAPT and DIF-1. […] After washing, blots were probed with HRP-conjugated secondary antibodies (1:5000) for 1 hour at room temperature. […] It would appear that the mechanism of DIF-1 on APP metabolism is not likely to involve γ-secretase activity, but might impact on either BACE1 levels or activity.
To evaluate this probability, we treated CHO-CAB cells that overexpress human APP^751 and human BACE1 with 30 μM of DIF-1. More specifically, even numbers of CHO-CAB cells were plated in 6-well dishes and allowed to grow overnight. The next day, the media was removed and replaced with control media (2 ml) or media containing DAPT, DIF-1 or DAPT and DIF-1. […] After washing, blots were probed with HRP-conjugated secondary antibodies (1:5000) for 1 hour at room temperature. Each treatment is shown above the blot. […] It would appear that DIF-1 has a greater effect on APP maturation in CHO-CAB cells. Longer exposures reveal the presence of mature APP bands in DIF-1 treated cells.
Next dose-dependent effects of DIF-1 on APP processing were examined. Even numbers of CHO-CAB cells were plated in 6-well dishes and allowed to grow overnight. The next day, cells were treated overnight with either vehicle or increasing concentrations of DIF-1 (5-30 μM).

Dictyostelium discoideum = settings: cited from earlier work
[4] = tested on: human leukemia K562 cells; settings: Kubohara 1999; cited from earlier work
GSK = settings: cited from earlier work

CCCC[C@@H](C=O)NC(=O)[C@H](CC(C)C)NC(=O)[C@H](CC(C)C)NC(C)=O [ALLN, Acetyl-L-Leucyl-L-Leucyl-L-Norleucinal, reference compound] (Ac-Leu-Leu-[Nle]-aldehyde)
effect of proteasome inhibitor alone on APP CTF levels (APP [1]): induced an increase in CTF levels
effect on cyclin D1 level (proteasome inhibitor alone) (cyclin D1): increased the levels of cyclin D1
level of APP ubiquitin-conjugates (single agent) (APP ubiquitin-conjugates): increased the level of APP ubiquitin conjugates

C[C@H](NC(=O)Cc1cc(F)cc(F)c1)C(=O)N[C@H](C(=O)OC(C)(C)C)c1ccccc1 [DAPT, N4-[N-(3,5-difluorophenacetyl-1-alanyl)]-S-phenylglycine tert-butyl ester, reference compound]
APLP1 maturation, protein levels, CTF levels (human APLP1): significant increase in the levels of APLP1 CTF
amount of T668 phosphorylated APP CTFs [2]: greatly increased the amount of detectable phosphorylated APP at residue T668
α- and βCTF levels with γ-secretase inhibitor alone (APP [3]): increase in the levels of both α- and βCTFs
effect on cyclin D1 level (cyclin D1; CHO-7W, 30 μM DIF-1 or 250 nM DAPT): no effect

CCCCC(=O)c1c(O)c(Cl)c(OC)c(Cl)c1O [DIF-2, 1-(3,5-dichloro-2,6-dihydroxy-4-methoxyphenyl)pentan-1-one]
specific activity relative to DIF-1 (stalk-cell differentiation) (Dictyostelium discoideum; percent of the activity of DIF-1): ~40%

CCCCCC(=O)c1c(O)cc(OC)c(Cl)c1O [DIF-3, 1-(3-chloro-2,6-dihydroxy-4-methoxyphenyl)hexan-1-one]
anti-leukemic potency among DIF analogs [4]: most potent anti-leukemic agent
activity in inducing stalk-cell differentiation (Dictyostelium discoideum; in words): much less active

O=C1Cc2c([nH]c3ccc(Br)cc23)-c2ccccc2N1 [kenpaullone, 9-bromo-7,12-dihydro-indolo[3,2d][1]benzazepin-6(5H)-one]
effect of kinase inhibitor alone on APP processing / CTF levels (APP [1]): no effect on the level of APP CTFs
effect of kinase inhibitor pretreatment on the effect of DIF-1 on APP processing (APP [1]): neither attenuated nor potentiated the effect of DIF-1 on APP processing
pIC50 (GSK): 7.64

CC(=O)N[C@@H](CSC(=O)[C@]1([C@@H](O)C(C)C)NC(=O)[C@H](C)[C@@H]1O)C(=O)O [lactacystin, 3S-hydroxy-2R-(1-hydroxy-2-methylpropyl)-4R-methyl-5-oxo-2 pyrrolidine-carboxylate-N-acetyl-L-cysteine, reference compound]
effect of proteasome inhibitor alone on APP CTF levels (APP [1]): induced an increase in the level of αCTF and βCTF
effect on cyclin D1 level (proteasome inhibitor alone) (cyclin D1): increased the levels of cyclin D1
level of APP ubiquitin-conjugates (single agent) (APP ubiquitin-conjugates): increased the level of APP ubiquitin conjugates

CC[C@H](CO)Nc1nc(NCc2ccccc2)c2ncn(C(C)C)c2n1 [roscovitine, 2-(R)-[[9-(1-Methylethyl)-6-[(phenylmethyl)amino]-9H-purin-2-yl]amino]-1 butanol]
effect of kinase inhibitor alone on APP processing / CTF levels (APP [1]): no effect on APP metabolism
effect of kinase inhibitor pretreatment on the effect of DIF-1 on APP processing (APP [1]): neither blocked nor potentiated the effect of DIF-1 on APP CTF production
